The record followed here is PubChem BioAssay AID2060353 (Molecular Pharmacology Branch, DTP, NCI, 2025).

“And” between values parts separate entries of the source, which are not always exact repeats. Identical values can stand only once.

In this assay the test system is 521955-158-R2-J5-PDC spheroids with stroma, growth inhibition. As to the kind of experiment: Anticancer human tumor 521955-158-R2-J5-PDC patient-derived pancreatic carcinoma cell line growth inhibition [TAK]. As to conditions: for viability, T/C: stronger effect = lower value. The text has this:
Combinatorial screen of targeted agents with TAK-243 and ipatasertib in multi-cell type tumor spheroids
A high-throughput screen of multi-cell type tumor spheroids was designed to identify active combinations of targeted small molecules and TAK-243 or ipatasertib. Complex spheroids include a stromal component modeled by human endothelial cells (HUVEC) and fibroblasts modeled by human mesenchymal stem cells (MSCs). The concentration ranges selected for each drug and investigational agent were based upon clinically achievable concentrations if the clinical Cmax of the agent was known.
Compounds. The drugs and investigational agents: TAK-243 (785004), ipatasertib (767898), everolimus (733504), selumetinib (741078), bortezomib (756655), trametinib (758246), ixazomib (758254), vemurafenib (761431), dabrafenib (764134), sapanisertib (764658), alpelisib (765974), and copanlisib (816437), were obtained from the National Cancer Institute (NCI) Developmental Therapeutics Program Chemical Repository. The FDA-approved anticancer drug set is available from the NCI Developmental Therapeutics Program. […] The stock solutions were prepared in dimethyl sulfoxide (DMSO, Sigma-Aldrich, St. Louis, MO, cat. D2650) at 800-fold the tested concentration and stored at -70 degrees C prior to their use. All drugs and investigational agents were tested over a range starting from a high concentration at or near the clinical Cmax and decreasing in half-log increments. If the clinical Cmax for an agent had not been determined, the highest concentration tested was 10 microM.
NCI60 Cell Culture. NCI60 cell lines were obtained from the NCI Developmental Therapeutics Program Tumor Repository. For each lot of cells, the Repository performed Applied Biosystems AmpFLSTR Identifiler testing with PCR amplification to confirm consistency with the published Identifier STR profile for each cell line. Cells were kept in continuous culture for no more than 20 passages. The optimal seeding densities for each of the cell lines at each time point assessed were determined prior to performing the concentration response studies. Briefly, the NCI60 human tumor lines were grown as monolayers in RPMI 1640 medium supplemented with 10% FBS and 2 mmol/L L-glutamine.
An additional 2 lines were from the NCI60 cell line panel including melanomas, MALME-3M and SK-MEL-2. Pooled donor human umbilical vein endothelial cells (HUVEC, Lonza, cat. CC-2519) and human mesenchymal stem cells (hMSC, Lonza, cat. PT-2501) were purchased from Lonza (Walkersville, MD).
PDMR cell lines were grown in complete medium (DC medium): Dulbecco's modified Eagle's medium (DMEM)/F12 supplemented with 5% fetal bovine serum (FBS), 2 mM L-glutamine, 100 U/mL penicillin and 100 µg/ml streptomycin, 0.4 µg/ml hydrocortisone, 10 ng/ml epidermal growth factor (EGF) recombinant human protein, 24 µg/mL adenine, and 0.1 mg/mL primocin. During culture from frozen stock vials, PDMR cells were cultured in the same medium containing 10 µM Y-27632 (see Table 3). The PDCs were cultured in complete DMEM/F12 media without 10 microM Y-27632 dihydrochloride for at least two passages prior to the screen. The pooled donor HUVEC and hMSC were cultured in endothelial cell growth medium 2 (PromoCell, Heidelberg, Germany, cat. C-22011) and mesenchymal stem cell growth medium 2 (PromoCell, cat. C-28009), respectively. For all experiments, HUVEC and hMSC were used at passages </=5.
For the pre-screen, cell seeding densities were determined from a titration spanning the range from 5,000 to 313 cells per well. The mct-spheroids including 60% malignant cells, 25% HUVEC and 15% MSC dispensed as a mixture into U-bottom Ultra-Low Attachment 384-well plates (Corning, NY)
High-throughput Drug Combination Screening.
Prior to their inoculation into 384-well plates, malignant cells, HUVEC, and hMSC were removed from T flasks using TrypLE express (Thermo Fisher Scientific, cat. 12605036) and harvested by centrifugation for 5 min at 233 x g. […]

The mark [1] stands for this setting: curve of first compound, second compound 0.3 µM.
Where [2] appears, read: curve of first compound, second compound 0.949 µM.
Setting [3] is: curve of first compound, second compound 3 µM.
[4] abbreviates: curve of first compound, second compound 9.49 µM.
Where [5] appears, read: curve of first compound, second compound 30 µM.
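Note: spheroids exposed to drugs for seven days before readout.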

What is called viability, T/C is the result in the treated group divided by that in the control group, in per cent. The IC50 is the concentration needed to halve the response being measured. Consider `Cc1nc(NC(=O)N2CCCC2C(N)=O)sc1-c1ccnc(C(C)(C)C(F)(F)F)c1` (centres undefined), for which the viability, T/C (compound 0.0316 µM) is 90.1% and 88.9%; the viability, T/C (compound 0.1 µM) was 88.6% and 71.4%; the viability, T/C (compound 0.316 µM) is 77.4% and 65.2%; the viability, T/C (compound 1 µM) is 62.1% and 51.6%; the viability, T/C (compound 3.16 µM) is 49.1% and 47.6%; the viability, T/C (compound 10 µM) is 35.7% and 40.8%. The IC50 (curve of compound) is 2680 nM and 1740 nM.

As to `CC(=O)Nc1cccc(-n2c(=O)n(C3CC3)c(=O)c3c(Nc4ccc(I)cc4F)n(C)c(=O)c(C)c32)c1` + CC(C)NCC(C(=O)N1CCN(c2ncnc3c2C(C)CC3O)CC1)c1ccc(Cl)cc1, the IC50 runs as follows: under setting [1], 0.714 nM; under setting [2], 0.283 nM; under setting [3], 0.267 nM; under setting [4], 0.394 nM; under setting [5], 0.109 nM. Moreover, the viability, T/C (second compound 0.3 µM, first compound 94.9 pM) was 94.6%; the viability, T/C (second compound 0.3 µM, first compound 0.0003 µM) is 67.8%; the viability, T/C (second compound 0.3 µM, first compound 0.000949 µM) was 40.3%; the viability, T/C (second compound 0.3 µM, first compound 0.003 µM) is 33.8%; the viability, T/C (second compound 0.3 µM, first compound 0.00949 µM) was 29.3%; the viability, T/C (second compound 0.3 µM, first compound 0.03 µM) is 17.7%. The viability, T/C was 75.4% (second compound 0.949 µM, first compound 94.9 pM); 46.7% (second compound 0.949 µM, first compound 0.0003 µM); 31.9% (second compound 0.949 µM, first compound 0.000949 µM); 19.5% (second compound 0.949 µM, first compound 0.003 µM); 11.9% (second compound 0.949 µM, first compound 0.00949 µM); 5.36% (second compound 0.949 µM, first compound 0.03 µM). For the same compound, the viability, T/C by setting is: (second compound 3 µM, first compound 94.9 pM) 62.6%; (second compound 3 µM, first compound 0.0003 µM) 46.9%; (second compound 3 µM, first compound 0.000949 µM) 37.6%; (second compound 3 µM, first compound 0.003 µM) 22.1%; (second compound 3 µM, first compound 0.00949 µM) 12.8%; (second compound 3 µM, first compound 0.03 µM) 4.27%. Also, the viability, T/C is 91.6% (second compound 9.49 µM, first compound 94.9 pM); 53.6% (second compound 9.49 µM, first compound 0.0003 µM); 33.2% (second compound 9.49 µM, first compound 0.000949 µM); 20% (second compound 9.49 µM, first compound 0.003 µM); 10.8% (second compound 9.49 µM, first compound 0.00949 µM); 4.02% (second compound 9.49 µM, first compound 0.03 µM). Also, the viability, T/C is, setting by setting: (second compound 30 µM, first compound 94.9 pM) 51.5%; (second compound 30 µM, first compound 0.0003 µM) 38.6%; (second compound 30 µM, first compound 0.000949 µM) 18.3%; (second compound 30 µM, first compound 0.003 µM) 8.52%; (second compound 30 µM, first compound 0.00949 µM) 3.18%; (second compound 30 µM, first compound 0.03 µM) 0.96%.

As to `CC(C)CC(NC(=O)CNC(=O)c1cc(Cl)ccc1Cl)B1OC(=O)CC(CC(=O)O)(C(=O)O)O1` (centres undefined), the viability, T/C reads like this: (compound 0.000316 µM) 102% and 105%; (compound 0.001 µM) 111% and 93.8%; (compound 0.00316 µM) 96.3% and 92%; (compound 0.01 µM) 93.5% and 92.7%; (compound 0.0316 µM) 80.1% and 72.8%; (compound 0.1 µM) 10% and 7.07%. For the same compound, the half-inhibitory concentration (IC50) (curve of compound) was 50.8 nM and 47 nM.

On to `Cc1nc(NC(=O)N2CCCC2C(N)=O)sc1-c1ccnc(C(C)(C)C(F)(F)F)c1` (centres undefined) + CC(C)NCC(C(=O)N1CCN(c2ncnc3c2C(C)CC3O)CC1)c1ccc(Cl)cc1, for which the IC50 under setting [1] amounted to 909 nM; the IC50 under setting [2] is 533 nM; the IC50 under setting [3] amounted to 159 nM; the concentration for half-maximal inhibition (IC50) under setting [4] is 123 nM; the IC50 under setting [5] is less than 31.6 nM. Besides, the viability, T/C is, setting by setting: (second compound 0.3 µM, first compound 0.0316 µM) 109%; (second compound 0.3 µM, first compound 0.1 µM) 84.3%; (second compound 0.3 µM, first compound 0.316 µM) 58.2%; (second compound 0.3 µM, first compound 1 µM) 49%; (second compound 0.3 µM, first compound 3.16 µM) 45.1%; (second compound 0.3 µM, first compound 10 µM) 30.1%. Further, the viability, T/C runs as follows: (second compound 0.949 µM, first compound 0.0316 µM) 76.2%; (second compound 0.949 µM, first compound 0.1 µM) 69%; (second compound 0.949 µM, first compound 0.316 µM) 52.5%; (second compound 0.949 µM, first compound 1 µM) 45%; (second compound 0.949 µM, first compound 3.16 µM) 34.8%; (second compound 0.949 µM, first compound 10 µM) 27.7%. Further, the viability, T/C was 78.7% (second compound 3 µM, first compound 0.0316 µM); 54% (second compound 3 µM, first compound 0.1 µM); 40.6% (second compound 3 µM, first compound 0.316 µM); 31.3% (second compound 3 µM, first compound 1 µM); 22.3% (second compound 3 µM, first compound 3.16 µM); 15.2% (second compound 3 µM, first compound 10 µM). The viability, T/C (second compound 9.49 µM, first compound 0.0316 µM) is 70.7%; the viability, T/C (second compound 9.49 µM, first compound 0.1 µM) was 55.4%; the viability, T/C (second compound 9.49 µM, first compound 0.316 µM) was 29.5%; the viability, T/C (second compound 9.49 µM, first compound 1 µM) is 19.6%; the viability, T/C (second compound 9.49 µM, first compound 3.16 µM) is 13.7%; the viability, T/C (second compound 9.49 µM, first compound 10 µM) is 8.86%. For the same compound, the viability, T/C is 48% (second compound 30 µM, first compound 0.0316 µM); 42.7% (second compound 30 µM, first compound 0.1 µM); 23.9% (second compound 30 µM, first compound 0.316 µM); 17.2% (second compound 30 µM, first compound 1 µM); 11% (second compound 30 µM, first compound 3.16 µM); 6.07% (second compound 30 µM, first compound 10 µM).
